Counter-ions that a name gives are not always drawn.
Assays:
NHE3 [1] = biological target: T1, NHE3 (Homo sapiens, UniProt P48764); test: Cell-based assay of NHE-3 activity (pre-incubation inhibition), human; conditions: human Preincubation; for pIC50: 0-30 μM test compound
T1 construct: expressed in transfected cells
T1 sequence (P48764 26-834): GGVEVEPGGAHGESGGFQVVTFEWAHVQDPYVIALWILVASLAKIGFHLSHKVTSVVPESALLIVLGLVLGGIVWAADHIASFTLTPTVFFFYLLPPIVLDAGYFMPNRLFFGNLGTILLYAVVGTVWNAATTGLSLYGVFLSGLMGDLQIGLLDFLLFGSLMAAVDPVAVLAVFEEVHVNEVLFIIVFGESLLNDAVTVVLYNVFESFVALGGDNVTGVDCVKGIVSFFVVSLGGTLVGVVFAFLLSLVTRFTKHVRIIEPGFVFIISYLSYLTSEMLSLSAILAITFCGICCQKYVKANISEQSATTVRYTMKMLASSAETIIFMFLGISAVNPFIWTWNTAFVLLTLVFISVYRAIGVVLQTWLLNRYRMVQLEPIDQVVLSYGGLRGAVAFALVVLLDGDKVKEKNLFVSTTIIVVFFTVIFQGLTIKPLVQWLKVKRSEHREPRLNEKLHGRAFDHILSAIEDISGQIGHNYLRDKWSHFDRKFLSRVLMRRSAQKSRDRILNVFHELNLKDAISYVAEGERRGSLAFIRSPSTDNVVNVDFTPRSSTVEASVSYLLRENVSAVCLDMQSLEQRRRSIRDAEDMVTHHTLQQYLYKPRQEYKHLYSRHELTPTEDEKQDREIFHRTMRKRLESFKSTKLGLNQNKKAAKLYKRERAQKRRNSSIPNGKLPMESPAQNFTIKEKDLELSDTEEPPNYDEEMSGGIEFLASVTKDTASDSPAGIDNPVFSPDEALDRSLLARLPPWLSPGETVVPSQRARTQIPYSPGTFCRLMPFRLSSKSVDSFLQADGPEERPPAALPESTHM
T1 sequence (Q99653 2-195 partner limits assumed): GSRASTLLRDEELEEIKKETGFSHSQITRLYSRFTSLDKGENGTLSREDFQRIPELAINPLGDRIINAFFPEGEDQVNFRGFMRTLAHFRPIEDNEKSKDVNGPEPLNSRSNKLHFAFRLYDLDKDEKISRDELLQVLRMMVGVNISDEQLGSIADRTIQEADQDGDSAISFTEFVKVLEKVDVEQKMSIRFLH
Procedure: Rat and human NHE-3-mediated Na^+-dependent H^+ antiport was measured using a modification of the pH sensitive dye method originally reported by Paradiso (Proc. Natl. Acad. Sci. USA. (1984) 81(23): 7436-7440). PS120 fibroblasts stably expressing human NHE3 and NHERF2 were obtained from Mark Donowitz (Baltimore, Md.). Opossum kidney (OK) cells were obtained from the ATCC and propagated per their instructions. The rat NHE-3 gene (GenBank M85300) was introduced into OK cells via electroporation, and cells were seeded into 96 well plates and grown overnight. Medium was aspirated from the wells then incubated for 30 min at 37° C. with NH4Cl-HEPES buffer (20 mM NH4Cl, 80 mM NaCl, 50 mM HEPES, 5 mM KCl, 2 mM CaCl2, 1 mM MgCl2, pH 7.4) containing 5 μM BCECF-AM. Cells were washed once with Ammonium free, Na^+-free HEPES (100 mM choline, 50 mM HEPES, 10 mM glucose, 5 mM KCl, 2 mM CaCl2, 1 mM MgCl2, pH 7.4) and incubated in the same buffer for 10 minutes at room temperature to lower intracellular pH with 0-30 μM test compound. […] Changes in intracellular pH were monitored using a FLIPR Tetra® (Molecular Devices, Sunnyvale, Calif.) by excitation at λex 439 to 505 nm, and measuring BCECF fluorescence at λem 538 nm. The initial rate of the fluorescence ratio change was used as a measure of NHE-mediated Na^+/H^+ activity, and reported as the change in fluorescence ratio per minute.

NHE3 [2] = biological target: T1, NHE3; test: Cell-based assay of NHE-3 activity (persistent inhibition), human; conditions: human Persistence, 60 min incubation then washout
Procedure: The ability of compounds to inhibit human and rat NHE-3-mediated Na^+ dependent H^+ antiport after application and washout was measured using a modification of the pH sensitive dye method described above. PS120 fibroblasts stably expressing human NHE3 and NHERF2 were obtained from Mark Donowitz (Baltimore, Md.). Opossum kidney (OK) cells were obtained from the ATCC and propagated per their instructions. The rat NHE-3 gene was introduced into OK cells via electroporation, and cells were seeded into 96 well plates and grown overnight. Medium was aspirated from the wells, cells were washed once with NaCl-HEPES buffer (100 mM NaCl, 50 mM HEPES, 10 mM glucose, 5 mM KCl, 2 mM CaCl2, 1 mM MgCl2, pH 7.4), then overlayed with NaCl-HEPES buffer containing 0-30 μM test compound. After a 60 min incubation at room temperature, the test drug containing buffer was aspirated from the cells. Following aspiration, cells were washed once with NaCl-HEPES buffer without drug, then incubated for 30 min at 37° C. with NH4Cl-HEPES buffer (20 mM NH4Cl, 80 mM NaCl, 50 mM HEPES, 5 mM KCl, 2 mM CaCl2, 1 mM MgCl2, pH 7.4) containing 5 μM BCECF-AM. Cells were washed once with Ammonium free, Na^+-free HEPES (100 mM choline, 50 mM HEPES, 10 mM glucose, 5 mM KCl, 2 mM CaCl2, 1 mM MgCl2, pH 7.4) and incubated in the same buffer for 10 minutes at room temperature to lower intracellular pH. NHE-3-mediated recovery of neutral intracellular pH was initiated (10 min after compound washout) by addition of Na-HEPES buffer. […] Changes in intracellular pH were monitored using a FLIPR Tetra® (Molecular Devices, Sunnyvale, Calif.) by excitation at λex 439 to 505 nm, and measuring BCECF fluorescence at λem 538 nm. The initial rate of the fluorescence ratio change was used as a measure of NHE-mediated Na^+/H^+ activity, and reported as the change in fluorescence ratio per minute.

Row | SMILES | % inhibition (NHE3 [1]) | pIC50 (NHE3 [1]) | % inhibition (NHE3 [2]) | pIC50 (NHE3 [2])
1 | Cc1cc(S(=O)(=O)NCCOCCOCCNC(=O)NCCCCNC(=O)NCCOCCOCCNS(=O)(=O)c2ccc(O[C@H]3c4cc(Cl)cc(C#N)c4C[C@@H]3N(C)C)c(C)c2)ccc1O[C@H]1c2cc(Cl)cc(C#N)c2C[C@@H]1N(C)C [Example 18, 3-[2-(2-[2-[(4-[[(1S,2S)-6-Chloro-4-cyano-2-(dimethylamino)-2,3-dihydro-1H-inden-1-yl]oxy]-3-methylbenzene)sulfonamido]ethoxy]ethoxy)ethyl]-1-[4-([[2-(2-[2-[(4-[[(1S,2S)-6-chloro-4-cyano-2-(dimethylamino)-2,3-dihydro-1H-inden-1-yl]oxy]-3-methylbenzene)sulfonamido]ethoxy]ethoxy)ethyl]carbamoyl]amino)butyl]urea; bis(trifluoroacetic acid)] | B (40-70%) | C (NHE3 pIC50 > 7) | B (40-70%) | C (NHE3 pIC50 > 7)
2 | Cc1cc(S(=O)(=O)NCCOCCOCCNC(=O)NCCCCNC(=O)NCCOCCOCCNS(=O)(=O)c2ccc(O[C@H]3c4cc(Cl)cc(C(F)(F)F)c4C[C@@H]3N(C)C)c(C)c2)ccc1O[C@H]1c2cc(Cl)cc(C(F)(F)F)c2C[C@@H]1N(C)C [Example 19, 3-[2-(2-[2-[(4-[[(1S,2S)-6-Chloro-2-(dimethylamino)-4-(trifluoromethyl)-2,3-dihydro-1H-inden-1-yl]oxy]-3-methylbenzene)sulfonamido]ethoxy]ethoxy)ethyl]-1-[4-([[2-(2-[2-[(4-[[(1S,2S)-6-chloro-2-(dimethylamino)-4-(trifluoromethyl)-2,3-dihydro-1H-inden-1-yl]oxy]-3-methylbenzene)sulfonamido]ethoxy]ethoxy)ethyl]carbamoyl]amino)butyl]urea] | A (NHE3 < 40%) | A (NHE3 pIC50 < 6) | A (NHE3 < 40%) | A (NHE3 pIC50 < 6)
3 | Cc1cc(S(=O)(=O)NCCOCCOCCNC(=O)NCCCCNC(=O)NCCOCCOCCNS(=O)(=O)c2ccc(O[C@H]3c4cc(Cl)cc(OC(F)(F)F)c4C[C@@H]3N(C)C)c(C)c2)ccc1O[C@H]1c2cc(Cl)cc(OC(F)(F)F)c2C[C@@H]1N(C)C [Example 20, 1-[2-(2-[2-[(4-[[(1S,2S)-6-Chloro-2-(dimethylamino)-4-(trifluoromethoxy)-2,3-dihydro-1H-inden-1-yl]oxy]-3-methylbenzene)sulfonamido]ethoxy]ethoxy)ethyl]-3-[4-([[2-(2-[2-[(4-[[(1S,2S)-6-chloro-2-(dimethylamino)-4-(trifluoromethoxy)-2,3-dihydro-1H-inden-1-yl]oxy]-3-methylbenzene)sulfonamido]ethoxy]ethoxy)ethyl]carbamoyl]amino)butyl]urea] | A (NHE3 < 40%) | A (NHE3 pIC50 < 6) | A (NHE3 < 40%) | A (NHE3 pIC50 < 6)
4 | COc1cc(Cl)cc2c1C[C@H](N(C)C)[C@H]2Oc1ccc(S(=O)(=O)NCCOCCOCCNC(=O)NCCCCNC(=O)NCCOCCOCCNS(=O)(=O)c2ccc(O[C@H]3c4cc(Cl)cc(OC)c4C[C@@H]3N(C)C)c(C)c2)cc1C [Example 21, 3-[2-(2-[2-[(4-[[(1S,2S)-6-Chloro-2-(dimethylamino)-4-methoxy-2,3-dihydro-1H-inden-1-yl]oxy]-3-methylbenzene)sulfonamido]ethoxy]ethoxy)ethyl]-1-[4-([[2-(2-[2-[(4-[[(1S,2S)-6-chloro-2-(dimethylamino)-4-methoxy-2,3-dihydro-1H-inden-1-yl]oxy]-3-methylbenzene)sulfonamido]ethoxy]ethoxy)ethyl]carbamoyl]amino)butyl]urea; bis(trifluoroacetic acid)] | A (NHE3 < 40%) | C (NHE3 pIC50 > 7) | C (>70%) | A (NHE3 pIC50 < 6)
5 | Cc1cc(S(=O)(=O)NCCOCCOCCNC(=O)NCCCCNC(=O)NCCOCCOCCNS(=O)(=O)c2ccc(O[C@H]3c4cc(Cl)cc(Cl)c4C[C@@H]3N(C)C)c(C)c2)ccc1O[C@H]1c2cc(Cl)cc(Cl)c2C[C@@H]1N(C)C [Example 22, 3-[2-(2-[2-[(4-[[(1S,2S)-4,6-Dichloro-2-(dimethylamino)-2,3-dihydro-1H-inden-1-yl]oxy]-3-methylbenzene)sulfonamido]ethoxy]ethoxy)ethyl]-1-[4-([[2-(2-[2-[(4-[[(1S,2S)-4,6-dichloro-2-(dimethylamino)-2,3-dihydro-1H-inden-1-yl]oxy]-3-methylbenzene)sulfonamido]ethoxy]ethoxy)ethyl]carbamoyl]amino)butyl]urea dihydrochloride] | C (>70%) | C (NHE3 pIC50 > 7) | C (>70%) | C (NHE3 pIC50 > 7)
6 | CN(C)[C@@H]1CCCN([C@H]2Cc3c(Cl)cc(Cl)cc3[C@@H]2Oc2ccc(S(=O)(=O)NCCOCCOCCNC(=O)NCCCCNC(=O)NCCOCCOCCNS(=O)(=O)c3ccc(O[C@H]4c5cc(Cl)cc(Cl)c5C[C@@H]4N4CCC[C@@H](N(C)C)C4)cc3)cc2)C1 [Example 25] | C (>70%) |  | C (>70%) | 
7 | CN(C)[C@H]1Cc2c(C#N)cc(Cl)cc2[C@@H]1Oc1ccc(S(=O)(=O)NCCOCCOCCNC(=O)NCCCCNC(=O)NCCOCCOCCNS(=O)(=O)c2ccc(O[C@H]3c4cc(Cl)cc(C#N)c4C[C@@H]3N(C)C)c(F)c2)cc1F [Example 37, 3-[2-(2-[2-[(4-[[(1S,2S)-6-Chloro-4-cyano-2-(dimethylamino)-2,3-dihydro-1H-inden-1-yl]oxy]-3-fluorobenzene)sulfonamido]ethoxy]ethoxy)ethyl]-1-[4-([[2-(2-[2-[(4-[[(1S,2S)-6-chloro-4-cyano-2-(dimethylamino)-2,3-dihydro-1H-inden-1-yl]oxy]-3-fluorobenzene)sulfonamido]ethoxy]ethoxy)ethyl]carbamoyl]amino)butyl]urea] | B (40-70%) | C (NHE3 pIC50 > 7) | B (40-70%) | C (NHE3 pIC50 > 7)
